Patent publication US20220202770A1, “COMPOSITION FOR TREATING HEPATITIS B, AND METHOD FOR EVALUATING REPLICATION ACTIVITY OF HEPATITIS B VIRUS” (priority 2016, published 2022)

Columns and labels:
[1] = tested on: HBV DNA replication (reverse transcription of reporter pgRNA by wild type HBV-Pol); test: Evaluation method for HBV replication activity: reporter-minus strand DNA quantified by real time PCR in transfected HeLa cells; assay type: cell-based, hepatitis B virus (genotype C); HeLa cells; conditions: 24 hours; for suppression of reverse transcription by wild-type HBV-Pol: Example 9, FIG. 12B (a, b), 0.020-5.000 μM
Procedure: To HeLa cells, the evaluation vector for HBV replication activity, HBV-P expression vector, HBc expression vector and HBx expression vector were introduced in various combinations (Introduction step). Combination patterns are as described in FIG. 4A. Transfection of the HeLa cells was carried out by electroporation. DNA (10 μg) was introduced into about 1×10^6 HeLa cells in the conditions of 125 V/2.5 ms plus length by an electroporator, Nepa 21 (Nepa Gene Co., Ltd.). The ratio of HBc expression vector:HBV-P expression vector:HBx expression vector was set to be 9:3:1. If there was an expression vector not to be introduced depending on the combination, the same ratio of an empty vector (pCI) as that of the expression vector not to be introduced was introduced. The ratio of the evaluation vector for HBV replication activity and the total of other expression vectors was set to be 1: 1 (5 μg: 5 μg). If there was an expression vector not to be introduced, pCI was introduced at the ratio corresponding to that of the expression vector.
After transfection, the HeLa cells were cultured in DMEM supplemented with 2 mL of 10% FBS in the presence of 5% CO2 at 37° C. for 48 hours (Culturing step).
After culture, DNA was extracted from the HeLa cells by means of DNeasy Mini (Qiagen). As the primer, a primer pair of a forward primer consisting of the nucleotide sequence represented by SEQ ID NO: 38 and a reverse primer consisting of the nucleotide sequence represented by SEQ ID NO: 39, was used. The forward primer has the two nucleotides at the 3′ terminal, which match the two nucleotides at the 5′ terminal of the exon present on the downstream side; however, fail to match two nucleotides at the 5′ terminal of the intron. Accordingly, the forward primer functions as a primer only in the case where reporter-minus strand DNA having a reporter sequence from which the intron was removed is present, and amplification can be made by using the reporter-minus strand DNA as a template to provide a DNA fragment of 131 nucleotides.
In accordance with the evaluation method for HBV replication activity described in Example 1, an evaluation vector for HBV replication activity, HBV-P expression vector, HBc expression vector and HBx expression vector were introduced in HeLa cells. […]
To HeLa cells, an evaluation vector for HBV replication activity, and expression vectors of HBV-P, HVc and HBx were introduced in the ratio described in the evaluation method for HBV replication activity described in Example 2. […] The absorbance of the culture solution was measured at 450 nm/650 nm to evaluate the survival rates of the cells. […]

[2] = tested on: genomic DNA (G3PDH exon 8) of HeLa cells; test: Amount of genomic DNA (G3PDH exon 8) in HeLa cells by real time PCR; assay type: cell-based, human (HeLa cells); conditions: Example 3, FIG. 6B, serially diluted
Procedure: (§1) To HeLa cells, an evaluation vector for HBV replication activity, and expression vectors of HBV-P, HVc and HBx were introduced in the ratio described in the evaluation method for HBV replication activity described in Example 2. Thereafter, the HeLa cells were cultured in a 96-well plate containing a culture solution supplemented with a 0.25% n-butanol extract of a filamentous fungus culture, under 5% CO2 atmosphere at 37° C. Twenty-four hours later, WST-8 (Nacalai) was added to the culture solution, which was further subjected to culture for 2 hours. The absorbance of the culture solution was measured at 450 nm/650 nm to evaluate the survival rates of the cells.
(§2) After the culture solution was removed, DNA in the cell cytoplasm was recovered by a treatment with 50 μl of Buffer A (10 mM HEPES, 1.5 mM MgCl2, 10 mM KCl, 0.5 mM DTT, 0.05% NP40, pH7.9) and subjected to real time PCR performed in accordance with the method of Example 1. As the result of primary screening of 800 extracts (200 strains, 4 culture solutions), 162 extracts inhibiting 25% or more of HBV DNA replication (reverse transcription) and having a cytotoxic activity of 80% or less were selected as a primary hit.
(§3) Subsequently, 162 extracts primarily hit were serially diluted and added to an evaluation system. […]

[3] = tested on: mitochondrial DNA (ND5) of HeLa cells; test: Amount of mitochondrial DNA (ND5) in HeLa cells by real time PCR; assay type: cell-based, human (HeLa cells); conditions: Example 3, FIG. 6C, serially diluted
Procedure: as §1, §2, §3

[4] = tested on: Lamivudine-resistance mutant HBV-Pol (HBV-Pol-LAMr, M204I); test: Evaluation method for HBV replication activity with Lamivudine-resistance mutant HBV-Pol; assay type: cell-based, hepatitis B virus; HeLa cells; conditions: Example 9, FIG. 12B (c, d); HeLa cells, 0.020-5.000 μM, 24 hours
From the text: (§4) As described in the section of “background art”, long-term administration of conventional anti-HBV drugs made of a nucleotide/nucleoside analog such as Entecavir and Lamivudine causes the emergence of drug-resistant HBV. As a cause of the emergence of such a drug-resistant HBV, a mutation within the region of reverse transcription enzyme (RT) of HBV-Pol has been reported.
(§5) Then, mutant HBV-Pol expression vectors having M204I mutation, and L180M/T184G/S202I/M204I mutations respectively introduced therein were prepared in accordance with a conventional method and designated as HBV-P-LAMr, and HBV-P-ETVr, respectively. As the MAPKK inhibitor, Hypothemycin was used. As a negative control against a drug-resistant HBV, an existing anti-HBV drug, Entecavir, was used.
(§6) HBV replication evaluation was carried out in the same manner as in the evaluation method for HBV replication activity described in Example 1. The evaluation vector for HBV replication activity, and expression vectors of a wild type HBV-P or mutant HBV-P (HBV-P-LAMr or HBV-P-ETVr), HBc and HBx were introduced in the same ratio as in Example 2; at the same time, Hypothemycin or Entecavir was introduced in amounts of 0.000 μM, 0.020 μM, 0.039 μM, 0.078 μM, 0.156 μM, 0.313 μM, 0.625 μM, 1.250 μM, 2.500 μM or 5.000 μM. Culture was carried out under a 5% CO2 atmosphere at 37° C. […]

[5] = tested on: Entecavir-resistance mutant HBV-Pol (HBV-Pol-ETVr, L180M/T184G/S202I/M204I); test: Evaluation method for HBV replication activity with Entecavir-resistance mutant HBV-Pol; assay type: cell-based, hepatitis B virus; HeLa cells; conditions: Example 9, FIG. 12B (e, f); HeLa cells, 0.020-5.000 μM, 24 hours
From the text: as §4, §5, §6

[6] = target: HBV/C-Pol (hepatitis B virus polymerase, Genotype C), wild type (hepatitis B virus, Genotype C) (UniProt Q9YZR5); test: cell-based or functional assay

Compound | replication of HBV DNA ([1]; Example 3, FIG. 6A, serially diluted) | suppression of reverse transcription by wild-type HBV-Pol [1] | amount of genomic DNA (G3PDH exon 8) [2] | amount of mitochondrial DNA (ND5) [3] | suppression of reverse transcription activity of Lamivudine-resistance mutant HBV-Pol [4] | suppression of reverse transcription activity of Entecavir-resistance mutant HBV-Pol [5] | amount of the reporter-minus strand DNA (replication of HBV DNA) ([1]; Example 2, FIG. 5, 0.04-5.00 μM/well) | HBV replication (reporter-minus strand DNA by real time PCR) in HeLa cells under forced expression of MEK1 [6] [fold]
Hypothemycin | inhibited replication of HBV DNA in a concentration-dependent manner | all in a concentration-dependent manner | not affected | not affected | all in a concentration-dependent manner | all in a concentration-dependent manner | – | –
C=C1[C@H](CO)[C@@H](O)C[C@@H]1n1cnc2c(=O)[nH]c(N)nc21 [Entecavir] | – | suppressed reverse transcription by a wild-type HBV-Pol in a concentration-dependent manner | – | – | weak | not substantially suppressed | decreased in an Entecavir-concentration depending manner | –
constitutively active human MEK1 (S218E/S222E) (from UniProt Q02750 1-393) (enzyme) | – | – | – | – | – | – | – | 10
